Experimental data taken from ChEMBL document CHEMBL1201862, “PubChem BioAssay data set” (2004).
Blank lines part the entries; values can stand above or below the compound they belong to. Activity calls are given as the source filed them.

Assays:
[1] = target: T1, Heat shock factor protein 1 (Mus musculus, UniProt P38532); assay: decrease of HSF1-responsive luciferase luminescence – cell-based, NIH3T3, dose retest, confirmation (AID 2382); assay type: functional;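 further: NIH3T3 fibroblasts with HSF1-driven luciferase reporter stressed by proteasome inhibitor MG132; luminescence from HSF1-driven luciferase expression after 8 hours of MG132 stress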
T1 sequence (P38532 whole entry): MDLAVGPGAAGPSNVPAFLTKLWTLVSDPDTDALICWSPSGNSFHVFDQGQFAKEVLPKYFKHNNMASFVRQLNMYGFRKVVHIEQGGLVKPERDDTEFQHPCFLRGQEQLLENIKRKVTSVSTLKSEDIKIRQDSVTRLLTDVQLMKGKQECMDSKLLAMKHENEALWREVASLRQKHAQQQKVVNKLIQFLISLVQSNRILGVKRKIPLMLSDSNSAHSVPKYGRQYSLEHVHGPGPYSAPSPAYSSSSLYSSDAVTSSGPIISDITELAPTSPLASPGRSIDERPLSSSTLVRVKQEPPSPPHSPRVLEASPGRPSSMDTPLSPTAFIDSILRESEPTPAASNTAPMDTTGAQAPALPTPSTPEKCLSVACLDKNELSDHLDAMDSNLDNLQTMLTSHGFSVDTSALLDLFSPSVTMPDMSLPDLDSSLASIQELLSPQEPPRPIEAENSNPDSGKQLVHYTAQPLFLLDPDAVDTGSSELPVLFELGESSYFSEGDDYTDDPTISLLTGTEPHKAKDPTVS

[2] = target: T2, Corticotropin-releasing factor receptor 2/Corticotropin-releasing factor-binding protein (Homo sapiens, UniProt P24387+Q13324); assay: activators of CRF receptor 2 with binding protein – uHTS hits, confirmation (AID 602473); assay type: functional; details: read-out: EC50_Mean
T2 sequence (Q13324 whole entry): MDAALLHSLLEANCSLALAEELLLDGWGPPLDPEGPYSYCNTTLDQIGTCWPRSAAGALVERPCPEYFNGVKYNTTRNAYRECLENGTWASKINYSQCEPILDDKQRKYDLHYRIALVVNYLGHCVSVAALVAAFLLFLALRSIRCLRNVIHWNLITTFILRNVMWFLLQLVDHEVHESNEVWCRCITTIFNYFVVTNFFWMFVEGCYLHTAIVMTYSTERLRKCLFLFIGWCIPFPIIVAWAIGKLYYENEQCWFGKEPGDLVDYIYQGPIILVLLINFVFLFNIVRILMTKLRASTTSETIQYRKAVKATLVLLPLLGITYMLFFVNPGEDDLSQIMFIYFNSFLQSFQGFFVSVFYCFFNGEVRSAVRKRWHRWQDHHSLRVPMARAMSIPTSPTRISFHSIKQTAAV
T2 sequence (P24387 whole entry): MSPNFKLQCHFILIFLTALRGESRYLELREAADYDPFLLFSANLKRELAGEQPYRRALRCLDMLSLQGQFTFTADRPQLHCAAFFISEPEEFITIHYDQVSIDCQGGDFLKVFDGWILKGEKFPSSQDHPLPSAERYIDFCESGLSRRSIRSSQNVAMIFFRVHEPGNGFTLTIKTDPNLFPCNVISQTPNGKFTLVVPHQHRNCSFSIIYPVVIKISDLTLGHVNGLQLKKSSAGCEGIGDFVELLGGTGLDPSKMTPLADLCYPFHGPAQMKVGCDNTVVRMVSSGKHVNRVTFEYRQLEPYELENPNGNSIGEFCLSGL

Cytochrome P450 2C19 = Cytochrome P450 2C19 (Homo sapiens, UniProt P33261); assay: Cytochrome panel assay with activity outcomes. Panel member name: p450-cyp2c19 Compounds with AC50 equal or less than 10 uM are considered active; assay type: functional; details: read-out: AC50
Cytochrome P450 1A2 = target: T3, Cytochrome P450 1A2 (Homo sapiens, UniProt P05177);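 further: PubChem cytochrome P450 panel assay, CYP1A2 panel member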
T3 sequence (P05177 whole entry): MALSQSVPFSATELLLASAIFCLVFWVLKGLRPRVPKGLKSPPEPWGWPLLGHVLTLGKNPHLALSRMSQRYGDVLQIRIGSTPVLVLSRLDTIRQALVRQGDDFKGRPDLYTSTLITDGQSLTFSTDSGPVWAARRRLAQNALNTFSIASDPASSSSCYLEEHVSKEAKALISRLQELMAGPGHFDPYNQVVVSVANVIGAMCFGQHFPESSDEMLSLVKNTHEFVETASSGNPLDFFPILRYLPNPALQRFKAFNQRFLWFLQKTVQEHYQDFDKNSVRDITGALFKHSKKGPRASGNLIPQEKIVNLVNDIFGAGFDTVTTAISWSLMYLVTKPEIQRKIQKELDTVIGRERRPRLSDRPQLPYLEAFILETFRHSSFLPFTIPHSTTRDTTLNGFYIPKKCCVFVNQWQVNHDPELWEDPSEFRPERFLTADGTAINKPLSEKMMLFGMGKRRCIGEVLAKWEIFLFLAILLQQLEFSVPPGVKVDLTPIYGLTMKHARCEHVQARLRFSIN

[3] = target: T4, Rac GTPase-activating protein 1 (Homo sapiens, UniProt Q9H0H5); assay: blockers of MgcRacGAP-driven Rac1 GTP hydrolysis – biochemical, ADP Hunter fluorescence, primary and confirmatory, confirmation (AID 624330); assay type: functional
T4 sequence (Q9H0H5 whole entry): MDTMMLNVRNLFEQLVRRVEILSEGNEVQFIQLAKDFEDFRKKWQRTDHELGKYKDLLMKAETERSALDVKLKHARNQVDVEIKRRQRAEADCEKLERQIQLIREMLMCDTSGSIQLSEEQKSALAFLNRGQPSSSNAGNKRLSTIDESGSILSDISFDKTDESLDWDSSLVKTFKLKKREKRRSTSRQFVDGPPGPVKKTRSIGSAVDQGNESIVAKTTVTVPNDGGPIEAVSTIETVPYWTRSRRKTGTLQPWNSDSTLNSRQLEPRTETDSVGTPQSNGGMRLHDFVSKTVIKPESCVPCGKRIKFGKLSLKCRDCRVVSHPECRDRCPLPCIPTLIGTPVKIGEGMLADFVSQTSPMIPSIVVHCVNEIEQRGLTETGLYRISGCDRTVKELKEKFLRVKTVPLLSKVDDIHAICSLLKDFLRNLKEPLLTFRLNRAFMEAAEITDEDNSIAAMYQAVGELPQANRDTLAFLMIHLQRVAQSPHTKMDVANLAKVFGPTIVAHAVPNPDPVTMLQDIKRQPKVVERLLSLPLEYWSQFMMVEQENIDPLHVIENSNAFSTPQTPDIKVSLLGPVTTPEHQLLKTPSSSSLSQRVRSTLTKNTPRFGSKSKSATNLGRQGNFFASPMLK

[4] = target: T5, RNA-binding protein pos-1 (Caenorhabditis elegans, UniProt G5EF15); assay: disruptors of C. elegans POS-1 RNA interaction – biochemical, fluorescence polarization, dose response (AID 1964);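 further: purified POS-1 fused to maltose binding protein made in E. coli; potency of compounds blocking POS-1 binding to fluorescent RNA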
T5 sequence (G5EF15 whole entry): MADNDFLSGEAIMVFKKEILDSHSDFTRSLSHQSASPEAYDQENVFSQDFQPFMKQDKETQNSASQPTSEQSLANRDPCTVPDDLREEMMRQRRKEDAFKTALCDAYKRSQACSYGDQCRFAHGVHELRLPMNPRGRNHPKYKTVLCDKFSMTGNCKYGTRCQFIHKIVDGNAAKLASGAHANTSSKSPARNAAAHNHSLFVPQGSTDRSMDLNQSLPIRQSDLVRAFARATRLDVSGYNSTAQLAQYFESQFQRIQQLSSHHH

[5] = target: T6, Zinc finger protein mex-5 (Caenorhabditis elegans, UniProt Q9XUB2); assay: potency of MEX-5 RNA-binding blockers – biochemical, C. elegans, fluorescence polarization, dose response (AID 1960)
T6 sequence (Q9XUB2 whole entry): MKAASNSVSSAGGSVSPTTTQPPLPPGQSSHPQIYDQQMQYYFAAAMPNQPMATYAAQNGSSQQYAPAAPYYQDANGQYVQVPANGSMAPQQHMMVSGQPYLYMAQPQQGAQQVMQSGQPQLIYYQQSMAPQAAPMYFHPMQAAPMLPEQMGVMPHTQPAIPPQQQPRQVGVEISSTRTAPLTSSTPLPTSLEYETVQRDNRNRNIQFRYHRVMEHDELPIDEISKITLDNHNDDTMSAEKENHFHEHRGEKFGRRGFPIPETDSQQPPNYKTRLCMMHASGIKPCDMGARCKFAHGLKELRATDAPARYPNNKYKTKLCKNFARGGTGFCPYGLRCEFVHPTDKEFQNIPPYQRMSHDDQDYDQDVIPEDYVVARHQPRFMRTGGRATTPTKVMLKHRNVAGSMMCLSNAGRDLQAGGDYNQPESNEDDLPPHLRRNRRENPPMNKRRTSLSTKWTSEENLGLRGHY

Sequence of Cytochrome P450 2C19 (P33261 whole entry): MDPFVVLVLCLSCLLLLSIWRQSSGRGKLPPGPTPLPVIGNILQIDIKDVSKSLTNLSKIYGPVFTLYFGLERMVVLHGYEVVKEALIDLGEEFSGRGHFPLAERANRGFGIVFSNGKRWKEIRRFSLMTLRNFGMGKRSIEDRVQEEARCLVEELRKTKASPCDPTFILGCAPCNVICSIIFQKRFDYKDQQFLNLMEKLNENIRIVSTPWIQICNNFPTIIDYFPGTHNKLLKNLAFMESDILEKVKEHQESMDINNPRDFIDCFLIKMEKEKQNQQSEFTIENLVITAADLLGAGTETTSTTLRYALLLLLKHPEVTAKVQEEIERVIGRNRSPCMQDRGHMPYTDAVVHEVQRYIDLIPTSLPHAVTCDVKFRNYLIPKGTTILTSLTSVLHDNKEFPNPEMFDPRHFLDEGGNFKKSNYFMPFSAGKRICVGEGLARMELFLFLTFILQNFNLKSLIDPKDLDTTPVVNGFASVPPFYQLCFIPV

Structure (SMILES): COc1ccc2c(COC(=O)CCS(=O)(=O)c3ccc(C)cc3)cc(=O)oc2c1
EC50 [1]: > 195 µM (not active)

Structure (SMILES): CC1CCC2(CC1)N=C(N)Nc1nc3ccccc3n12 (configuration not stated)
EC50 [1]: > 195 µM (not active) | AC50 (Cytochrome P450 2C19): 17.8 µM (inconclusive) | AC50 (Cytochrome P450 1A2): 12.6 µM (inconclusive)

Structure (SMILES): CCOC(=O)C1CCN(C2=NC(=O)/C(=C/c3ccc(O)cc3)S2)CC1
IC50 [3]: 21.2 µM (active)

Structure (SMILES): COc1ccc(/N=C2/SC(C(=O)N3CCN(c4ccccc4)CC3)CC(=O)N2C)cc1 (configuration not stated)
EC50 [1]: > 195 µM (not active)

Structure (SMILES): CCOc1ccccc1N1CCN(CC(=O)NC(C)c2ccccc2)CC1 (configuration not stated)
EC50 [1]: > 195 µM (not active)

Structure (SMILES): COc1ccc(CN(C)CCc2ccccn2)cc1OC
IC50 [3]: 74.6 µM (active)

Structure (SMILES): Cc1ccc2c(c1)C1C=CCC1C(C(=O)NCCCN1CCOCC1)N2 (configuration not stated)
EC50 [4]: > 300 µM (not active) | EC50 [5]: > 300 µM (not active)

Structure (SMILES): O=C(CSc1nnc(CNC(=O)c2cccs2)o1)NCc1ccc(F)cc1
EC50 [1]: > 195 µM (not active)

Structure (SMILES): O=C(NC(=O)c1cccc(F)c1)OC[C@@H]1CCCN2CCCC[C@H]12
EC50 [1]: > 195 µM (not active)

Structure (SMILES): COc1cc(/C=C/C(=O)OCC(=O)NCc2ccc(F)cc2)ccc1O
IC50 [3]: 36.3 µM (active)

Structure (SMILES): O=C(Cc1ccccc1)Nc1ccc(N2CCOCC2)cc1N1CCOCC1
EC50 [4]: > 300 µM (not active) | EC50 [5]: > 300 µM (not active)

Structure (SMILES): O=C(NNC(=O)c1ccccc1[N+](=O)[O-])c1csc(N2CCOCC2)n1
EC50 [4]: 84.9 µM (active) | EC50 [5]: 0.731 µM (active)

Further lines, results first:

EC50 [1]: > 195 µM (not active)
Structure (SMILES): COc1ccc2oc(=O)c(N3C(=O)c4ccccc4C3=O)cc2c1

EC50 [2]: 10.1 µM (active)
Structure (SMILES): Cc1ccc(S(=O)(=O)NCC(=O)N(CC(=O)NCc2ccco2)Cc2ccccc2)cc1

EC50 [4]: > 300 µM (not active) | EC50 [5]: > 300 µM (not active)
Structure (SMILES): COC(=O)C1=C(C)N(c2ccc(Cl)cc2)/C(=C/c2cccs2)C1=O

EC50 [1]: > 195 µM (not active)
Structure (SMILES): Cc1oc(C(=O)O)cc1COc1ccc2c3c(c(=O)oc2c1C)CCC3

EC50 [2]: > 53 µM (inactive)
Structure (SMILES): CC1(C)CC2=Nc3ccccc3NCC2=C(O)C1

IC50 [3]: 53.3 µM (active)
Structure (SMILES): COCCNC(=O)Cn1cc(/C=N/NC(=O)c2ccc(Oc3ccc(O)cc3)cc2)c2ccccc21

EC50 [4]: > 300 µM (not active) | EC50 [5]: > 300 µM (not active)
Structure (SMILES): COc1cc(C(=O)NC(c2ccccc2)c2ccccc2)cc(OC)c1C

IC50 [3]: 32.7 µM (active)
Structure (SMILES): O=C(Cc1coc2cc(O)ccc12)NNC(=O)c1cccs1
